Data from paper PMC5485989, “Role of Free Radicals and Biotransformation in Trichloronitrobenzene-Induced Nephrotoxicity In Vitro” (International Journal of Molecular Sciences, 2017).
“And” between values parts separate entries of the source, which are not always exact repeats. Equal values may be shown once. Marks after values point to notes of the source that are not given here.

Columns and labels:
[1] = test system: isolated renal cortical cells (IRCC); assay: Time and concentration cytotoxicity study, LDH release in IRCC; type: cell-based, male Fischer 344 rats; conditions: for Cytotoxicity (LDH release), time and concentration response: 0.5 or 1.0 mM, 15-120 min, significant difference from DMSO control, p < 0.05
Experimental: To determine the comparative nephrotoxic potential of the four TCNBs in IRCC, a time and concentration response study was performed starting at 15 min and 0.5 or 1.0 mM and adjusting the times tested based on the results (Figure 2).

renal cortical slices = conditions: 120 min incubations; cited from earlier work
[2] = test system: isolated renal cortical cells (IRCC); assay: Protein carbonylation in IRCC (OxyBlot); type: cell-based, male Fischer 344 rats
Experimental: (§1) To determine if oxidative stress plays a role in 3,4,5-TCNB nephrotoxicity, experiments were conducted to determine the temporal aspects of free radical damage as evidenced by protein carbonylation (OxyBlot) and 4-hydroxynonenal (4-HNE) adduction.
(§2) Protein carbonylation was detected using OxyBlot™ Protein Oxidation (Millipore S7150; Temecula, CA, USA). Samples were prepared according to the manufacturer’s protocol and an equal amount of protein (25 µg) and volume were loaded in each lane of a 12.5% polyacrylamide gel and transferred to a nitrocellulose membrane (Whatman; 10-439-196; Dassel, Germany). The transfer was confirmed using a Memcode reversible protein stain kit (Pierce Biotechnology, Fisher Scientific) and the protein was used to normalize each lane. Membranes were incubated overnight at 4 °C with primary antibody (1:150) for OxyBlot. Goat anti-rabbit horse radish peroxidase (HRP, 1:300) was the secondary antibody. Protein with 4-hydroxynonenal (4-HNE) reduced Micahel adducts were prepared as described previously with the exception that 45 µg of protein was used for the gel. The membranes were developed using Amersham^TM ECLTM Western Blotting Reagents (GE Healthcare; Buckinghamshire, UK) and the results were viewed and analyzed using a Bio-Rad Chemidoc system with BioRad Chemidoc densitometry software (version 4.0.1, Catalog No. 170-9690, BioRad, Hercules, CA, USA).

[3] = test system: isolated renal cortical cells (IRCC); assay: 4-HNE adduction in IRCC (Western blot); type: cell-based, male Fischer 344 rats; conditions: 0.5 or 1.0 mM, 15 or 30 min
Experimental: as §1, §2

kidney = test system: kidney; parameters: method as in PMID 2576285; conditions: 1.0 mmol/kg, intraperitoneally, cited from earlier work
[4] = test system: isolated renal cortical cells (IRCC); assay: Effect of antioxidant or biotransformation inhibitor pretreatment on TCNB cytotoxicity, LDH release in IRCC; conditions: 1.0 mM 2,3,4-TCNB alone, 60 min; one value per pretreatment experiment; mean ± S.E., n = 4
Experimental: Untreated rats were anesthetized with pentobarbital (75 mg/kg, i.p.) and isolated renal cortical cells (IRCC) were obtained by using the collagenase perfusion method. Initial cell viability was determined by measuring trypan blue (2% w/v) exclusion and lactate dehydrogenase (LDH) release. […] IRCC were then exposed to various concentrations of a TCNB (0, 0.5, or 1.0 mM) for 15, 30, 60, 90, or 120 min. Following the incubation period, flasks were removed and placed on ice. Samples (0.5 mL) were taken for LDH release assays. Briefly, the samples were centrifuged (3000× g, 3 min), the was supernatant decanted and saved, and the pellet was disrupted with 1 mL of 10% Triton X-100 solution to release cellular LDH activity. LDH activity was then determined in each fraction (supernatant and pellet) as previously described using a kinetic assay based on the amount of NADH produced from NAD [57]. The LDH released was expressed as % of total (supernatant plus pellet).
Concentrations used in these experiments were 0.5 mM (3,4,5-TCNB) or 1.0 mM (2,3,4-, 2,4,5- and 2,4,6-TCNB). Incubation times with a TCNB added were 30 min (3,4,5-TCNB), 60 min (2,3,4-TCNB), or 90 min (2,4,5- and 2,4,6-TCNB). The pretreatment times and concentrations for all of the pretreatments are shown below in Table 5.

Compound | Cytotoxicity (LDH release), time and concentration response [1] | Concentration at which cytotoxicity was evident ([1]; as early as 30 min) | Order of decreasing nephrotoxic potential ([1]; based on time of onset, lowest concentration required and magnitude of LDH release) | Lowest concentration inducing in vitro nephrotoxicity (increased LDH release and decreased pyruvate-stimulated gluconeogenesis) (renal cortical slices) | Protein carbonylation ([2]; 1.0 mM, 30 min, p = 0.017) | Protein carbonylation ([2]; 0.5 or 1.0 mM, 15 or 30 min) | 4-HNE levels [3] | Renal effects (kidney; 48 h after treatment) | Urinary creatinine and blood urea nitrogen (BUN) concentrations (kidney) | % of lactate dehydrogenase release, 2,3,4-TCNB [4]
O=[N+]([O-])c1cc(Cl)c(Cl)c(Cl)c1 [3,4,5-TCNB] | induced cytotoxicity at 30 and 60 min (0.5 and 1.0 mM) but not at 15 min | 500 µM | most potent nephrotoxicant | 0.5 mM | slightly decreased | not increased | not increased |  |  | 
O=[N+]([O-])c1ccc(Cl)cc1 [4-chloronitrobenzene] |  |  |  |  |  |  |  | induced diuresis, increased N-acetyl-β-D-glucosaminidase excretion, and caused swelling of the kidney | not altered | 
O=[N+]([O-])c1ccc(Cl)c(Cl)c1Cl [2,3,4-TCNB, 2,3,4-trichloronitrobenzene] | exhibited cytotoxicity starting after 15 min (1.0 mM) and 60 min exposure (0.5 and 1.0 mM), but no cytotoxicity was observed at 15 min |  |  | 0.5 mM |  |  |  |  |  | 28 ± 2 ^c % and 21 ± 1 ^c % and 22 ± 1 ^c % and 18 ± 1 ^c % and 20 ± 2 ^c % and 23 ± 2 ^c % and 20 ± 1 ^c % and 19 ± 1 ^c %
